Experimental data taken from PMC9229991, “Development of Reduced Peptide Bond Pseudopeptide Michael Acceptors for the Treatment of Human African Trypanosomiasis” (Molecules, 2022).
Where two headings read alike, the source gives them in different places.

Assays:
rhodesain [1] = target: T1, rhodesain (Trypanosoma brucei rhodesiense, UniProt Q95PM0); test: Rhodesain fluorogenic enzyme assay (Cbz-Phe-Arg-AMC substrate); type: biochemical, T. b. rhodesiense; conditions: for Rhodesain kinac: pH 5.5, room temperature; for Rhodesain k2nd: k2nd = kinact/Ki; for inhibition at 100 µM: preliminary screening at 100 µM, read-out: Rhodesain % of inhibition at screening concentration
T1 construct: made in house
Experimental: All molecules were tested towards rhodesain utilizing fluorogenic assays in the presence of Cbz-Phe-Arg-AMC as substrate. […] Firstly, all the molecules were preliminarily screened at 100 µM (Figure 1A), and DMSO and E-64 were employed as the negative and positive control, respectively. Since SPR10–SPR19 passed the initial screening (% of inhibition > 80%), they were properly diluted, in accordance with what is reported in the literature.
Rhodesain was recombinantly expressed as previously described and Cbz-Phe-Arg-AMC (10 µM) was used as the fluorogenic substrate. The rhodesain-mediated hydrolysis released the fluorescent portion AMC, and fluorescence was measured at room temperature over a period of 30 min, using an Infinite 200 PRO microplate reader, and excitation (380 nm) and emission ([…]) filters were employed. The assay buffer was composed of 50 mM sodium acetate, 5 mM EDTA, 200 mM NaCl, and 0.005% Brij 35 with a pH equal to 5.5. Similarly, the enzyme buffer contained the same chemicals as the assay, with the exception of Brij, which was replaced by 1,4-dithiothreitol (DTT). All the SPR derivatives were solubilized in DMSO, which was also used as the negative control. E-64 protease inhibitor [76] was employed as the positive control. […] Each independent assay was performed twice and in duplicate, using 96 well-plates in a total volume of […]. The first order inactivation rate constants (kobs) were determined by means of nonlinear regression analysis of the progress curves (fluorescence (F) vs. time), and the equation F = A (1 − exp(−kobst)) + B was used. The obtained kobs values were fitted vs. the concentrations of tested inhibitors, and the equation kobs = kinact [I]/(Kiapp + [I]) provided the Kiapp and kinact values. Ki values were obtained using the equation Ki = Kiapp/(1 + [S]/Km), where Km is equal to 0.9 µM [77]. Grafit software was used for the nonlinear regression analysis to calculate kinact and Ki. The second-order rate constants k2nd were directly determined as k2nd = kinact/Ki.

[2] = target: T2, human Cathepsin L (hCatL) (Homo sapiens, UniProt P07711); test: hCatL fluorogenic enzyme assay (selectivity); type: biochemical; conditions: for inhibition at 100 µM: screening concentration 100 µM; for Ki: Km 6.5 µM
Experimental: In order to evaluate the selectivity towards the protozoan cysteine protease, all the new Michael acceptors were assayed against human Cathepsin L (hCatL), which represents the homologous protease of rhodesain in humans.
Similarly to rhodesain, the activity towards hCatL was evaluated as reported in the literature. The biological evaluation towards hCatL was performed using the same buffers, reader, fluorogenic substrate, and positive and negative controls as described above for rhodesain, and the preliminary screening was performed at 100 µM. In this case too, each independent assay was performed twice and in duplicate. Differently from rhodesain, Km is equal to 6.5 µM [77].

T. b. brucei [3] = test: Antitrypanosomal activity, ATPlite assay; type: cell-based, Trypanosoma brucei brucei; conditions: 24 h
Experimental: The parasites used in this study were culture-adapted Trypanosoma brucei brucei of the cell line 449, descendants of the Lister strain 427 [79, 80]. The cells were grown in HMI-9 medium supplemented with 10% FCS, 50 U/mL penicillin, 50 µg/mL streptomycin, and 0.2 µg/mL phleomycin, at 37 °C and 5% CO2. EC50 values for the antitrypanosomal activity were determined using the ATPlite assay as previously described. Briefly, 10 mM compound stocks in DMSO were diluted to 333 µM in HMI-9 medium. This mixture was used to prepare nine further consecutive 1:2 dilutions in HMI-9 medium. Subsequently, 10 µL of diluted compound mixtures were added to 90 µL of media containing 2500 cell/mL in wells of a 96-well plate, in two separate triplicates. The highest DMSO concentration reached in compound plus cells mixture was 0.3%, and parasites treated with DMSO only were used as control. The cells were incubated for 24 h at 37 °C. Subsequently, 50 µL ATPlite 1 step solution (PerkinElmer) was added to each well and luminescence was measured using a CLARIOstar Plus plate reader (BMG Labtech).

HEK293 cells = test: Cytotoxicity assay, resazurin; type: cell-based; conditions: 24 h
Experimental: HEK293 cells were cultured in high-glucose DMEM medium with L-glutamine, supplemented with 10% FCS, 20 U/mL penicillin, and 20 µg/mL streptomycin, at 37 °C and 5% CO2. For the cytotoxicity assay, the cells were seeded in 400 µL at 60,000 cells per well of poly-lysine-coated 48-well plates, and incubated for 24 h at 37 °C. Compound stocks were diluted in DMSO in nine consecutive 1:2 steps, resulting in a set of ten dilutions with concentrations from 7 mM to […]. From each dilution, 4 µL were added to the cells in the 48-well plates, in two separate triplicates. Addition of only DMSO served as control. The plates containing cells plus compound dilutions were incubated for 21 h at 37 °C. Subsequently, the medium in each well was exchanged to a medium with resazurin (15 µg/mL), resulting in a final concentration of […]. The plates were incubated for 3 h at 37 °C. Finally, 100 µL of the solution from each well of the 48-well plate was transferred into a 96-well plate, and fluorescence was measured (excitation: 540-14, emission: 590-20) using a CLARIOstar Plus plate reader (BMG Labtech).

T. b. brucei [4] = conditions: 24 h; cited from earlier work
rhodesain [5] = target: T1, rhodesain; set-up: method as in PMID 31714776; conditions: lead compound; read-out: Rhodesain (TbrCatL) Ki; cited from earlier work
[6] = target: T2, human Cathepsin L (hCatL); set-up: method as in PMID 31714776; conditions: unit printed in cell (PS1, Table 1); cited from earlier work
L-6 rat myoblast cells = tested on: L-6 rat myoblast cells; set-up: method as in PMID 21200426; conditions: cytotoxicity; read-out: IC50 towards L-6 rat myoblast cells; cited from earlier work
[7] = Cbz-Phe-Arg-AMC 10 µM, pH 5.5, Km 0.9 µM, read-out: Rhodesain Ki

T1 sequence (Q95PM0 entry or part of it): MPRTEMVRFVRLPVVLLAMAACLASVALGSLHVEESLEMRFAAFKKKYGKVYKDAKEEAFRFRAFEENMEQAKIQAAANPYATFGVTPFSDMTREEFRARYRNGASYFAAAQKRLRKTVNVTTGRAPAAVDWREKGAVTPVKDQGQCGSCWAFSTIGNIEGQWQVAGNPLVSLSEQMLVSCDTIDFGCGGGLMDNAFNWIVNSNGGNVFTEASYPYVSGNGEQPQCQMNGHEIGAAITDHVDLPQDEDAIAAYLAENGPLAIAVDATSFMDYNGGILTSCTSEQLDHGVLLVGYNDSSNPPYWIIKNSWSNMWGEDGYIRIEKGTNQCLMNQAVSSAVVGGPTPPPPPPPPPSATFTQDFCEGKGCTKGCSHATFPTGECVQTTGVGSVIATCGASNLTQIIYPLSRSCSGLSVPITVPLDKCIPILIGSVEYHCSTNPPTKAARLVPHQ
T2 sequence (P07711 114-333): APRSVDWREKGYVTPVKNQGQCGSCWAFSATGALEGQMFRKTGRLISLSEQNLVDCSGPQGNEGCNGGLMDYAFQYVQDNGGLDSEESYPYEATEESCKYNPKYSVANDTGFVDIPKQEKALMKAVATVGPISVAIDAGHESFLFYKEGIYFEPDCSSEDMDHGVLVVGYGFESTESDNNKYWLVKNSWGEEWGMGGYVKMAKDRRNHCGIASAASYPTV

SMILES | Ki (rhodesain [1]; [7]) | Rhodesain kinac (rhodesain [1]; Cbz-Phe-Arg-AMC 10 µM) | Rhodesain k2nd (rhodesain [1]) | inhibition at 100 µM (rhodesain [1]) | inhibition at 100 µM [2] | further results
COC(=O)/C=C/[C@H](CCc1ccccc1)NC(=O)[C@H](Cc1ccccc1)NCc1ccc(F)cc1 [SPR15, Methyl (S,E)-4-((S)-2-((4-fluorobenzyl)amino)-3-phenylpropanamido)-6-phenylhex-2-enoate] | 2640 ± 130 nM | 0.0041 ± 0.0002 min⁻¹ | 1552 ± 19 M⁻¹ min⁻¹ | > 80% | 10% | 
COC(=O)C=CC(CCc1ccccc1)NC(=O)C(Cc1ccccc1)NCc1ccc(C(F)(F)F)cc1 (stereo not shown) [SPR19] |  | 0.0023 ± 0.0002 min⁻¹ |  | > 80% | 45% | Ki (rhodesain [1]): 410 ± 70 nM
COC(=O)/C=C/[C@H](CCc1ccccc1)NC(=O)[C@H](Cc1ccccc1)NCc1c(F)cccc1F [SPR18, Methyl (S,E)-4-((S)-2-((2,6-difluorobenzyl)amino)-3-phenylpropanamido)-6-phenylhex-2-enoate] | 210 ± 10 nM | 0.0012 ± 0.0001 min⁻¹ |  | > 80% | 26% | EC50 (T. b. brucei [3]; Trypanosoma brucei): 7000 ± 1000 nM; Cytotoxicity towards HEK293 cells: concentration up to which no relevant cytotoxicity was observed (HEK293 cells): > 70 µM
COC(=O)/C=C/[C@H](CCc1ccccc1)NC(=O)[C@H](Cc1ccccc1)NCc1cccc(F)c1 [SPR14, Methyl (S,E)-4-((S)-2-((3-fluorobenzyl)amino)-3-phenylpropanamido)-6-phenylhex-2-enoate] | 1260 ± 80 nM | 0.0043 ± 0.0007 min⁻¹ | 3398 ± 328 M⁻¹ min⁻¹ | > 80% | 35% | 
COC(=O)/C=C/[C@H](CCc1ccccc1)NC(=O)[C@H](Cc1ccccc1)NCc1ccccc1 [SPR10, Methyl (S,E)-4-((S)-2-(benzylamino)-3-phenylpropanamido)-6-phenylhex-2-enoate] | 5660 ± 300 nM | 0.0096 ± 0.0001 min⁻¹ | 1703 ± 68 M⁻¹ min⁻¹ | > 80% | 16% | 
COC(=O)/C=C/[C@H](CCc1ccccc1)NC(=O)[C@H](Cc1ccccc1)NCc1ccc([N+](=O)[O-])cc1 [SPR11, Methyl (S,E)-4-((S)-2-((4-nitrobenzyl)amino)-3-phenylpropanamido)-6-phenylhex-2-enoate] | 430 ± 60 nM | 0.0023 ± 0.0001 min⁻¹ |  | > 80% |  | Ki [2]: 36900 ± 2200 nM
COC(=O)/C=C/[C@H](CCc1ccccc1)NC(=O)[C@H](Cc1ccccc1)NCc1cc(F)ccc1F [SPR17, Methyl (S,E)-4-((S)-2-((2,5-difluorobenzyl)amino)-3-phenylpropanamido)-6-phenylhex-2-enoate] | 460 ± 160 nM | 0.0024 ± 0.0006 min⁻¹ |  | > 80% | 12% | 
CC(C)C[C@H](NC(=O)[C@H]1O[C@@H]1C(=O)O)C(=O)NCCCCN=C(N)N [E-64, reference compound] | 33 ± 7 nM | 0.0085 ± 0.0008 min⁻¹ | 263000 ± 30000 M⁻¹ min⁻¹ |  |  | 
COC(=O)/C=C/[C@H](CCc1ccccc1)NC(=O)[C@H](Cc1ccccc1)NC(=O)c1ccc(F)cc1 [SPR34, (S,E)-methyl 4-((S)-2-(4-fluorobenzamido)-3-phenylpropanamido)-6-phenylhex-2-enoate] | 5.8 ± 0.4 nM | 0.0050 ± 0.0003 min⁻¹ | 870,606 ± 1178 M^−1 min^−1 |  |  | Selectivity Index (SI) (Ki hCatL/rhodesain) [2]: 603; Ki [2]: 3500 ± 1100 nM; EC50 (T. b. brucei [3]): 15800 ± 2000 nM; EC50 (T. b. brucei [3]; Trypanosoma brucei): 16000 ± 2100 nM; Cytotoxicity towards HEK293 cells: concentration up to which no relevant cytotoxicity was observed (HEK293 cells): > 70 µM
CSc1ccc(OCc2ncc([N+](=O)[O-])n2C)cc1 [Fexinidazole] |  |  |  |  |  | EC50 (T. b. brucei [4]): 2380 ± 880 nM
CC(=O)C=CC(CCc1ccccc1)NC(=O)C(Cc1ccccc1)NC(=O)c1ccc(F)cc1 (stereo not shown) [PS-1] |  | 0.00094 ± 0.00007 min⁻¹ | 8.384e+08 ± 1.066e+08 M⁻¹ min⁻¹ |  |  | Ki (rhodesain [5]): 0.0011 nM; Ki [6]: 1.9 ± 0.4 nM; EC50 (T. b. brucei [4]): 5100 ± 1000 nM
COC(=O)/C=C/[C@H](CCc1ccccc1)NC(=O)[C@H](Cc1ccccc1)NCc1ccc(OC)cc1 [SPR12, Methyl (S,E)-4-((S)-2-((4-methoxybenzyl)amino)-3-phenylpropanamido)-6-phenylhex-2-enoate] | 4790 ± 1410 nM | 0.0062 ± 0.0014 min⁻¹ | 1314 ± 91 M⁻¹ min⁻¹ | > 80% |  | Ki [2]: 18500 ± 3900 nM
Nc1nc(N)nc(Nc2ccc([As]3SCC(CO)S3)cc2)n1 (stereo not shown) [melarsoprol] |  |  |  |  |  | IC50 (L-6 rat myoblast cells): 3300 nM
COC(=O)/C=C/[C@H](CCc1ccccc1)NC(=O)[C@H](Cc1ccccc1)NCc1ccc(F)cc1F [SPR16, Methyl (S,E)-4-((S)-2-((2,4-difluorobenzyl)amino)-3-phenylpropanamido)-6-phenylhex-2-enoate] | 220 ± 60 nM | 0.0014 ± 0.0001 min⁻¹ |  | > 80% | 38% | EC50 (T. b. brucei [3]; Trypanosoma brucei): 8700 ± 3000 nM; Cytotoxicity towards HEK293 cells: concentration up to which no relevant cytotoxicity was observed (HEK293 cells): > 70 µM
COC(=O)/C=C/[C@H](CCc1ccccc1)NC(=O)[C@H](Cc1ccccc1)NCc1ccccc1F [SPR13, Methyl (S,E)-4-((S)-2-((2-fluorobenzyl)amino)-3-phenylpropanamido)-6-phenylhex-2-enoate] | 1580 ± 620 nM | 0.0038 ± 0.0003 min⁻¹ | 2753 ± 885 M⁻¹ min⁻¹ | > 80% | 10% | 
